Holding throughout (assay type): physicochemical
Series [1] can be described thus: Aqueous solubility of Form P-1. The note with it: aqueous medium.
The next series is described as follows: pKa of Form P-1.
Series [2] in a line: Hygroscopicity of Form P-1.
Series [3] in a line: Solvent mediated polymorphic transformation (suspension of P-1 crystals in solvents). To be noted: room temperature or elevated temperature.

Values after ≈ are worked out from the molar mass of the structure shown.

By solubility is commonly meant the concentration that dissolves in the medium under given conditions. A high value points to a readily soluble substance. As a reminder, the pKa is the negative logarithm of the acid dissociation constant. A lower pKa goes with a group that gives up its proton readily. Take `COc1cnc(-n2cnc(C)n2)c2[nH]cc(C(=O)C(=O)N3CCN(C(=O)c4ccccc4)CC3)c12` [Form P-1, 1-(4-benzoyl-piperazin-1-yl)-2-[4-methoxy-7-(3-methyl-[1,2,4]triazol-1-yl)-1H-pyrrolo[2,3-c]pyridin-3-yl]-ethane-1,2-dione]: the solubility was 2.7 µg/mL (≈ 5.7 µM) in series [1] (25 °C, pH 5.7, aqueous buffer); 14 µg/mL (≈ 29.6 µM) in series [1] (aqueous buffer, pH 8.6, 25° C.); 12 µg/mL (≈ 25.3 µM) in series [1] (simulated gastric fluid, pH 1.4, 25° C.). Moreover, in the series “pKa of Form P-1”, the pKa turned out to be 8.4. Further, the “Hygroscopicity: maximum water uptake” value in series [2] (at 90% RH) is “RH and 3.2% maximum water uptake at 90% RH)”. Also, the Hygroscopicity entry in series [2] (result in words) is listed as “Low hygroscopicity”. For the same compound, the “Hygroscopicity: weight gain” value in series [2] (under 30-60% RH) worked out at 1%. In addition, in series [3], the “Phase conversion on suspension in various solvents” value is “did not show any phase conversion”.
